Three compounds from patent US7368541B2, “Trace amine receptor 1 of the African green monkey” (Merck & Co., Inc., priority 2004, dated 2008) can be followed below.

The assay concerns the target agmTA1 receptor (Chlorocebus aethiops (Cercopithecus aethiops, African green monkey), UniProt A0A0D9SAC2, I11T/L334F). The assay can be described thus: CRE-luciferase reporter functional assay in HEK293 cells transiently expressing agmTA1 receptor. In kind it is cell-based. Conditions: HEK293 cells transfected with pcDNA3.1-agmTA1 and pCRE-Luc; agonist 0.1 nM to 100 μM, 16 to 18 hours; luciferase activity.

In turn, `NCC(O)c1ccc(O)cc1` (stereo not drawn) [octopamine] had a concentration giving a half-maximal response (EC50) of roughly 0.2 µM.

In turn, `NCCc1c[nH]c2ccccc12` [tryptamine] came in with an EC50 of roughly 0.94 µM.

As to `NCCc1ccc(O)cc1` [tyramine], the EC50 is roughly 0.016 µM.

Usually EC50 stands for the concentration that produces a half-maximal response. A lower EC50 goes with higher potency in that assay.
